{"source": "patent US8742083B1", "about": "“Panel of micrornas that silence the MCL-1 gene and sensitize cancer cells to ABT-263” (AbbVie Inc., priority 2009, dated 2014)", "format_in_all_cases": "cell-based, human", "key": {"[1]": {"test_system": "Mcl-1", "assay": "Mcl-1 protein expression, Luminex-based assay, in HCT-116 cells", "details": "50 nM miRNA or Mcl-1 siRNA, 48 hours", "excerpt": "The present disclosure also provides a method for determining whether an miRNA increases sensitivity of a subject to treatment with a Bcl-2 family inhibitor. The method includes a) reverse transfecting a population of cancer cells with the candidate miRNA; b) contacting the cells with an effective amount of the Bcl-2 family inhibitor, and c) determining Mcl-1 expression level in the cells, wherein a decrease in Mcl-1 expression is indicative that the miRNA increases sensitivity of the subject to treatment with the Bcl-2 family inhibitor. Mcl-1 protein expression can be measured using a liquid phase immunoassay using Luminex beads. In brief, an Mcl-1 capture antibody is conjugated to Luminex beads (bead region 9) and an Mcl-1 detection antibody conjugated to biotin. […] Cell assay buffer is added after filtering and the plate is read using a Luminex 200 station. […]\nMcl-1 protein expression was measured using a new Mcl-1 assay based on the Luminex technology. […] Cell assay buffer was added after filtering and the plate was read using a Luminex 200 station. The liquid-phase quantitative protein assay was used to measure the levels of Mcl-1 in cells. […] Using this new Mcl-1 quantitative assay, the effect of these miRNAs on the Mcl-1 protein levels in CHL1 cells was measured. […]"}, "[2]": {"test_system": "Mcl-1 3′-UTR", "assay": "Mcl-1 3′-UTR luciferase reporter assay in HCT-116 cells", "details": "HCT-116 cells cotransfected with 100 ng reporter, 48 hours", "experimental": "(§1) HCT-116 and CHL1 cells were purchased from the American Type Culture Collection (ATCC) and cultured in DMEM (Invitrogen Corp., Grand Island, N.Y.) supplemented with 10% fetal bovine serum (Invitrogen) and 1% penicillin/streptomycin (Invitrogen). All cell lines were maintained in a humidified chamber at 37° C. containing 5% CO2. These cells were authenticated by morphological, cell proliferation and Mycoplasma tests recommended in the ATCC Technical Bulletin no, 8 (2007). Cells were reverse transfected at 1.5−2.5×10^4 cells/[…] in 96-well tissue culture plates. siRNA or miRNA transfection was performed using Lipofectamine 2000 according to manufacturer's instructions (Invitrogen). […] Caspase 3/7 activity was measured using the Caspase-Glo 3/7 assay (Promega). Luciferase activity was measured using the Steady-Glo reagent according to the manufacturer's protocol (Promega).\nMiRNA could modulate sensitivity to ABT-263 through several mechanisms: by directly targeting the Mcl-1 gene 3′-UTR and repressing protein translation or by targeting molecules involved in regulating Mcl-1 expression or function. […] Measure was taken of the effect of two Mcl-1 siRNAs and the twelve strongest sensitizing miRNAs on the Mcl-1 protein levels in HCT-116 cells using the Mcl-1 quantitative assay described above. […] Mcl-1 protein expression was measured using the Mcl-1 Luminex assay. […]"}, "[3]": {"test_system": "HCT-116 cells", "assay": "ABT-263 sensitization, CellTiter Glo cell viability after reverse transfection of miRNA/siRNA", "details": "for sensitization of HCT-116 cells to ABT-263, in words / sensitization of HCT-116 cells to ABT-263 (decrease in cell viability): 1 μM ABT-263, 48 hours; for sensitization of HCT-116 cells to ABT-263, in words: reverse transfection (miRNA 50 nM, siRNA 12.5 nM); for sensitization of HCT-116 cells to ABT-263 (decrease in cell viability): 50 nM miRNA mimic reverse transfected", "experimental": "HCT-116 and CHL1 cells were purchased from the American Type Culture Collection (ATCC) and cultured in DMEM (Invitrogen Corp., Grand Island, N.Y.) supplemented with 10% fetal bovine serum (Invitrogen) and 1% penicillin/streptomycin (Invitrogen). All cell lines were maintained in a humidified chamber at 37° C. containing 5% CO2. These cells were authenticated by morphological, cell proliferation and Mycoplasma tests recommended in the ATCC Technical Bulletin no, 8 (2007). Cells were reverse transfected at 1.5−2.5×10^4 cells/[…] in 96-well tissue culture plates. siRNA or miRNA transfection was performed using Lipofectamine 2000 according to manufacturer's instructions (Invitrogen). For Mcl-1 and Bcl-xl siRNA transfections, a final concentration of 12.5 nM siRNA was used. For miRNA transfections, a final concentration of 50 nM miRNA was used. The cells were then grown in medium without antibiotic for 2 days before harvesting. For reporter experiments, 100 ng of pcDNA3-Mcl-1-3′UTR-luciferase reporter construct (21) was included in the liposome complex mix. Forty-eight hours after transfection, cells were assayed for viability using CellTiter Glo Luminescent cell viability assay according to the manufacturer's protocol (Promega). Caspase 3/7 activity was measured using the Caspase-Glo 3/7 assay (Promega). Luciferase activity was measured using the Steady-Glo reagent according to the manufacturer's protocol (Promega).\nHCT-116 cells were reverse transfected as described in Example 1 above. Three replica plates were treated with 1 μM ABT-263 in media. […] HCT-116 cells were reverse transfected with sensitizing miRNAs in the presence or absence of 1 μM ABT-263 for 48 hours. Cell viability was measured with CellTiter Glo assay. MiR-29 and miR-125 were used as positive and negative controls for this assay. miRNAs that sensitize HCT-116 cells to ABT-263 by more than 25% are shown. FIG. 1B is a bar graph showing miRNAs that sensitize CHL1 cells to ABT-263. CHL1 cells were reverse transfected with sensitizing miRNAs in the presence or absence of 1 μM ABT-263 for 48 hours. Cell viability was measured with CellTiter Glo assay. Only miRNAs that sensitize HCT-116 cells to ABT-263 by more than 25% were shown. (See FIG. 6 for the complete list of 42 miRNAs). FIG. 1C is a bar graph showing modulation of Mcl-1 protein expression by sensitizing miRNAs in CHL1 cells. CHL1 cells were reverse transfected with sensitizing miRNAs. Mcl-1 expression was measured using a Luminex-based assay as described in the Methods section.\nTo identify miRNAs that modulate sensitivity of cells to Bcl-2 family inhibitor ABT-263, an miRNA “sensitization” screen was performed using an miRNA mimic library in the presence of ABT-263. The screen was conducted in a colon cancer cell line HCT-116. […] Synthetic miRNA mimics were reverse transfected into HCT-116 cells in the presence or absence of ABT-263 (FIG. 4). Reverse transfection of Mcl-1 siRNA and predicted Mcl-1-targeting miRNAs sensitized HCT-116 cells to 1 μM ABT-263 after 48 hours.\nHCT-116 cells were reverse transfected with a library of 810 annotated miRNA mimics in triplicate in the presence of 1 μM ABT-263 (FIG. 5A). Viability of cells was determined after 2 days. […] Z-scores were used to select candidate miRNAs for subsequent experiments. Of 810 miRNA mimics, 80 increased cell death in the presence of ABT-263. Thirty-eight of these 80 miRNAs either reduced cell viability in the absence of ABT-263 (Z←1.5) or represented mimic replicates from the screen, and therefore were not subjected to further testing. The remaining 42 miRNAs were tested in a secondary screen to assess their effect in the presence or absence of ABT-263. MiR-29 and miR-125 were used as control for this screen. […] FIG. 6A identifies miRNAs that sensitize HCT-116 cells to ABT-263. HCT-116 cells were reverse transfected with sensitizing miRNAs in the presence or absence of 1 μM ABT-263 for 48 hours. Cell viability was measured with CellTiter Glo assay. […]"}, "[4]": {"test_system": "CHL1 cells", "assay": "ABT-263 sensitization, CellTiter Glo cell viability after reverse transfection of miRNA/siRNA", "details": "no ABT-263", "experimental": "as §1\nHCT-116 cells were reverse transfected as described in Example 1 above. […] Cell viability was measured with CellTiter Glo assay. […] Cell viability was measured with CellTiter Glo assay. […] Mcl-1 expression was measured using a Luminex-based assay as described in the Methods section.\nHCT-116 cells were reverse transfected with a library of 810 annotated miRNA mimics in triplicate in the presence of 1 μM ABT-263 (FIG. 5A). Viability of cells was determined after 2 days. […] Cell viability was measured with CellTiter Glo assay. […]"}}}
{"molecule": "miR-605: sensitizing human miRNA, sequence UAAAUCCCAUGGUGCCUUCUCCU (listed as RNA, chemistry not given here)", "values": [{"measurement": "Mcl-1 protein expression in HCT-116 cells", "setting": "[1]", "result": "affected the Mcl-1 protein expression"}, {"measurement": "luciferase activity of Mcl-1 3′-UTR reporter", "setting": "[2]", "result": "did not reduce the luciferase activity"}]}
{"molecule": "Mcl-1 siRNA: Mcl-1 targeting siRNA, sequence GCATCGAACCATTAGCAGATT (listed as DNA, chemistry not given here)", "values": [{"measurement": "sensitization of HCT-116 cells to ABT-263, in words", "setting": "[3]", "result": "significantly sensitize"}, {"measurement": "HCT-116 cell viability after transfection in the absence of ABT-263", "setting": "[3]; no ABT-263", "result": "would not affect cell viability"}, {"measurement": "CHL1 cell viability after transfection in the absence of ABT-263", "setting": "[4]", "result": "affected CHL1 cell viability"}]}
{"molecule": "CC1(C)CCC(c2ccc(Cl)cc2)=C(CN2CCN(c3ccc(C(=O)NS(=O)(=O)c4ccc(N[C@H](CCN5CCOCC5)CSc5ccccc5)c(S(=O)(=O)C(F)(F)F)c4)cc3)CC2)C1", "note": "[ABT-263, N-(4-(4-((2-(4-chlorophenyl)-5,5-dimethyl-1-cyclohex-1-en-1-yl)methyl)pip-erazin-1-yl)benzoyl)-4-(((1R)-3-(morpholin-4-yl)-1-((phenylsulfanyl)methyl-)propyl)amino)-3-((trifluoromethyl)sulfonyl)benzenesulfonamide]", "values": [{"measurement": "effect of ABT-263 alone on HCT-116 cell viability", "setting": "[3]; in the presence of the control siRNA and miRNA", "result": "≤ 25", "unit": "%"}]}
{"molecule": "miR-744*: sensitizing human miRNA, sequence CUGUUGCCACUAACCUCAACCU (listed as RNA, chemistry not given here)", "values": [{"measurement": "Mcl-1 protein expression in HCT-116 cells", "setting": "[1]", "result": "affected the Mcl-1 protein expression"}, {"measurement": "luciferase activity of Mcl-1 3′-UTR reporter", "setting": "[2]", "result": "did not reduce the luciferase activity"}]}
{"molecule": "miR-153: sensitizing human miRNA, sequence UUGCAUAGUCACAAAAGUGAUC (listed as RNA, chemistry not given here)", "values": [{"measurement": "sensitization of HCT-116 cells to ABT-263 (decrease in cell viability)", "setting": "[3]", "result": "~50", "unit": "%"}]}
{"molecule": "miR-125: control miRNA (negative control), sequence UCCCUGAGACCCUUUAACCUGUGA (listed as RNA, chemistry not given here)", "values": [{"measurement": "sensitization of HCT-116 cells to ABT-263, in words", "setting": "[3]", "result": "did not sensitize"}]}
{"molecule": "miR-29: control miRNA (positive control), sequence UAGCACCAUUUGAAAUCAGUGUU (listed as RNA, chemistry not given here)", "values": [{"measurement": "sensitization of HCT-116 cells to ABT-263, in words", "setting": "[3]", "result": "much weaker"}]}
{"molecule": "miR-193a: sensitizing human miRNA, sequence AACUGGCCUACAAAGUCCCAGU (listed as RNA, chemistry not given here)", "values": [{"measurement": "sensitization of HCT-116 cells to ABT-263 (decrease in cell viability)", "setting": "[3]", "result": "~50", "unit": "%"}]}
